This assay addresses T1, D-3-phosphoglycerate dehydrogenase (Homo sapiens, UniProt O43175).
T1 sequence (O43175 whole entry): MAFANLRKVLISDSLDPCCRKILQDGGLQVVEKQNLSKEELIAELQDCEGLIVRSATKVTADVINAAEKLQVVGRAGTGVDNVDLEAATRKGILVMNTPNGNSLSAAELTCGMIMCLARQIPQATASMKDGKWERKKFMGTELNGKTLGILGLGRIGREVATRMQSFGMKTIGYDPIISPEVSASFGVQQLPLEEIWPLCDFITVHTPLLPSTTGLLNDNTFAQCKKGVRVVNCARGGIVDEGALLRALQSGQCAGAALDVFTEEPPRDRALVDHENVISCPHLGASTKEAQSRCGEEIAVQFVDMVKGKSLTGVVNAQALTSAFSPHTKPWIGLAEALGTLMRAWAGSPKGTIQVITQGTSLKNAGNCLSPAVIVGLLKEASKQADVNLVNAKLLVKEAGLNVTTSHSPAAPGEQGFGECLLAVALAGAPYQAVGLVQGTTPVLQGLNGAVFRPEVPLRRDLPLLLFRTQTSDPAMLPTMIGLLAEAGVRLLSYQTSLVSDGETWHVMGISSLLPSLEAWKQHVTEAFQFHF
The assay can be described thus: Inhibition of N-terminal HIS-tagged and TEV cleavage site containing full length PHGDH (unknown origin) expressed in Escherichia coli assessed as reduction in conversion of 3-Phosphoglycerate and NAD to 3-Phosphohydroxypyruvate and NADH using 250 uM NAD and 500 uM 3-PG incubated for 240 mins by fluorescence based assay.

Six molecules from ChEMBL document CHEMBL4476888, “Tosylacetate based compounds and derivatives thereof as phgdh inhibitors” (2018) can be followed below.

The structures appear in SMILES notation.

In general, IC50 refers to the midpoint of a concentration-inhibition curve. On to `COC(=O)CS(=O)(=O)c1ccc([C@@H](C)NC(=O)c2cc3c(Cl)cc(C)cc3n2C)nc1`, for which the IC50 was 1130 nM.
For `COCCOC(=O)CS(=O)(=O)c1ccc([C@@H](CO)NC(=O)c2cc3c(Cl)cc(C)cc3n2C)cc1`, the IC50 was found to be 62 nM.
As for `Cc1cc(Cl)c2cc(C(=O)N[C@H](C)c3ccc(S(=O)(=O)CC(=O)OCCNC(=O)OC(C)(C)C)cc3)n(C)c2c1`, the IC50 worked out at 701 nM.
`Cc1cc2c(cc(C(=O)N[C@@H](C)c3ccc(S(=O)(=O)CC(=O)O)cc3)n2C)c(Cl)c1Cl`: the IC50 was 155 nM.
Regarding `Cc1cc(Cl)c2cc(C(=O)N[C@H](CO)c3ccc(S(=O)(=O)CC(=O)OCC4(F)COC4)cc3)n(C)c2c1`, the IC50 is 27 nM.
Regarding `Cc1cc(Cl)c2cc(C(=O)N[C@H](C)c3ccc(S(=O)(=O)C(C)(C)C(=O)OC(C)(C)C)cc3)n(C)c2c1`, the IC50 turned out to be 5050 nM.
